From ChEMBL document CHEMBL4507282, “Data for DCP probe BI-1950” (2021)

Assays:
[1] = test system: Receptor-type tyrosine-protein kinase FLT3 (Homo sapiens), P36888 [D835Y]; conditions: Compound concentration 1000.0 nM
[2] = molecular target: Sodium-dependent serotonin transporter (Homo sapiens) (UniProt P31645); conditions: Compound concentration 10.0 uM
[3] = test system: Proto-oncogene tyrosine-protein kinase receptor Ret (Homo sapiens), P07949 [V804M]; conditions: Compound concentration 1000.0 nM
[4] = molecular target: Focal adhesion kinase 1 (Homo sapiens) (UniProt Q05397); conditions: Compound concentration 1000.0 nM
[5] = test system: Phosphatidylinositol 4,5-bisphosphate 3-kinase catalytic subunit alpha isoform (Homo sapiens), P42336 [H1047L]; conditions: Compound concentration 1000.0 nM
[6] = molecular target: SRSF protein kinase 2 (Homo sapiens) (UniProt P78362); conditions: Compound concentration 1000.0 nM
[7] = test system: Tyrosine-protein kinase ABL1 (Homo sapiens), P00519 [F317L]; conditions: Compound concentration 1000.0 nM
[8] = test system: Serine/threonine-protein kinase B-raf (Homo sapiens), P15056 [V600E]; conditions: Compound concentration 1000.0 nM
[9] = molecular target: Cyclin-dependent kinase 9 (Homo sapiens) (UniProt P50750); conditions: Compound concentration 1000.0 nM
[10] = molecular target: Phosphatidylinositol 4-kinase beta (Homo sapiens) (UniProt Q9UBF8); conditions: Compound concentration 1000.0 nM
[11] = molecular target: Interferon-induced, double-stranded RNA-activated protein kinase (Homo sapiens) (UniProt P19525); conditions: Compound concentration 1000.0 nM
[12] = molecular target: Mitogen-activated protein kinase kinase kinase 4 (Homo sapiens) (UniProt Q9Y6R4); conditions: Compound concentration 1000.0 nM
[13] = molecular target: Tyrosine-protein kinase Yes (Homo sapiens) (UniProt P07947); conditions: Compound concentration 1000.0 nM
[14] = molecular target: Serine/threonine-protein kinase D2 (Homo sapiens) (UniProt Q9BZL6); conditions: Compound concentration 1000.0 nM
[15] = molecular target: Serine/threonine-protein kinase Sgk2 (Homo sapiens) (UniProt Q9HBY8); conditions: Compound concentration 1000.0 nM
[16] = molecular target: Tyrosine-protein kinase JAK1 (Homo sapiens) (UniProt P23458); conditions: Compound concentration 1000.0 nM
[17] = molecular target: Ribosomal protein S6 kinase alpha-1 (Homo sapiens) (UniProt Q15418); conditions: Compound concentration 1000.0 nM
[18] = molecular target: MAP/microtubule affinity-regulating kinase 4 (Homo sapiens) (UniProt Q96L34); conditions: Compound concentration 1000.0 nM
[19] = molecular target: Alpha-2C adrenergic receptor (Homo sapiens) (UniProt P18825); conditions: Compound concentration 10.0 uM
[20] = molecular target: Serine/threonine-protein kinase 24 (Homo sapiens) (UniProt Q9Y6E0); conditions: Compound concentration 1000.0 nM
[21] = molecular target: Interleukin-1 receptor-associated kinase 4 (Homo sapiens) (UniProt Q9NWZ3); conditions: Compound concentration 1000.0 nM
[22] = test system: Mast/stem cell growth factor receptor Kit (Homo sapiens), P10721 [V559D]; conditions: Compound concentration 1000.0 nM
[23] = molecular target: Serine/threonine-protein kinase 26 (Homo sapiens) (UniProt Q9P289); conditions: Compound concentration 1000.0 nM
[24] = molecular target: Bone morphogenetic protein receptor type-1A (Homo sapiens) (UniProt P36894); conditions: Compound concentration 1000.0 nM
[25] = molecular target: RAF proto-oncogene serine/threonine-protein kinase (Homo sapiens) (UniProt P04049); conditions: Compound concentration 1000.0 nM
[26] = molecular target: Serine/threonine-protein kinase 32B (Homo sapiens) (UniProt Q9NY57); conditions: Compound concentration 1000.0 nM
[27] = molecular target: Ribosomal protein S6 kinase alpha-1 (Homo sapiens) (UniProt Q15418); conditions: Compound concentration 1000.0 nM; remark: listed apart in the source
[28] = molecular target: Serine/threonine-protein kinase NLK (Homo sapiens) (UniProt Q9UBE8); conditions: Compound concentration 1000.0 nM
[29] = molecular target: Vascular endothelial growth factor receptor 2 (Homo sapiens) (UniProt P35968); conditions: Compound concentration 1000.0 nM
[30] = molecular target: Serine/threonine-protein kinase TAO3 (Homo sapiens) (UniProt Q9H2K8); conditions: Compound concentration 1000.0 nM
[31] = molecular target: Mitogen-activated protein kinase kinase kinase kinase 4 (Homo sapiens) (UniProt O95819); conditions: Compound concentration 1000.0 nM
[32] = molecular target: Phosphatidylinositol 3-kinase catalytic subunit type 3 (Homo sapiens) (UniProt Q8NEB9); conditions: Compound concentration 1000.0 nM
[33] = molecular target: Myosin light chain kinase family member 4 (Homo sapiens) (UniProt Q86YV6); conditions: Compound concentration 1000.0 nM
[34] = molecular target: Rho-associated protein kinase 1 (Homo sapiens) (UniProt Q13464); conditions: Compound concentration 1000.0 nM
[35] = molecular target: Histamine H1 receptor (Homo sapiens) (UniProt P35367); conditions: Compound concentration 10.0 uM
[36] = molecular target: Serine/threonine-protein kinase 17A (Homo sapiens) (UniProt Q9UEE5); conditions: Compound concentration 1000.0 nM
[37] = molecular target: Calcium/calmodulin-dependent protein kinase kinase 2 (Homo sapiens) (UniProt Q96RR4); conditions: Compound concentration 1000.0 nM
[38] = molecular target: BMP-2-inducible protein kinase (Homo sapiens) (UniProt Q9NSY1); conditions: Compound concentration 1000.0 nM
[39] = molecular target: Serine/threonine-protein kinase N2 (Homo sapiens) (UniProt Q16513); conditions: Compound concentration 1000.0 nM
[40] = molecular target: RAC-beta serine/threonine-protein kinase (Homo sapiens) (UniProt P31751); conditions: Compound concentration 1000.0 nM
[41] = molecular target: Tyrosine-protein kinase Lck (Homo sapiens) (UniProt P06239); conditions: Compound concentration 1000.0 nM
[42] = test system: Tyrosine-protein kinase ABL1 (Homo sapiens), P00519 [Q252H]; conditions: Compound concentration 1000.0 nM
[43] = test system: Epidermal growth factor receptor (Homo sapiens), P00533 [UNDEFINED MUTATION]; conditions: Compound concentration 1000.0 nM
[44] = molecular target: Non-receptor tyrosine-protein kinase TYK2 (Homo sapiens) (UniProt P29597); conditions: Compound concentration 1000.0 nM
[45] = molecular target: Cyclin-dependent kinase 4 (Homo sapiens) (UniProt P11802); conditions: Compound concentration 1000.0 nM

Ribosomal protein S6 kinase alpha-1 (Homo sapiens), sequence (Q15418 whole entry): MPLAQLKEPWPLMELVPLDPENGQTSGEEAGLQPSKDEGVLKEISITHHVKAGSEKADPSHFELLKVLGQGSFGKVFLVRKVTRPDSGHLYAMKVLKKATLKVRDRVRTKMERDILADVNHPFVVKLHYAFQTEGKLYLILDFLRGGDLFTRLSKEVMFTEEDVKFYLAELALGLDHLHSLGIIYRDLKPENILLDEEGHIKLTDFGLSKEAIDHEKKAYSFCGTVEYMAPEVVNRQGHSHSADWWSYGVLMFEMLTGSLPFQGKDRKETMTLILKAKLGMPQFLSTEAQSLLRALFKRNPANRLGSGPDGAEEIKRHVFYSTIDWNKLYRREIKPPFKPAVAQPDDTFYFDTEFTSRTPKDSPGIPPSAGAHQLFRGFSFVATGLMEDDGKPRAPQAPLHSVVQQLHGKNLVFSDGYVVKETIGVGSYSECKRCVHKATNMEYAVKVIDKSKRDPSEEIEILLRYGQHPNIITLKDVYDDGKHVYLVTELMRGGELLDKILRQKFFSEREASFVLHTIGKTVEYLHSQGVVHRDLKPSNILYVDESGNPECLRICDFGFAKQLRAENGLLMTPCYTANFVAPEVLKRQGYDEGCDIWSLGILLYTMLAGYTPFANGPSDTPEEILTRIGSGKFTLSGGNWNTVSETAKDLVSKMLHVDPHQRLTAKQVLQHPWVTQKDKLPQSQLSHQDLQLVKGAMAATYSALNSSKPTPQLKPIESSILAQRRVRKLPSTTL
Serine/threonine-protein kinase D2 (Homo sapiens), sequence (Q9BZL6 whole entry): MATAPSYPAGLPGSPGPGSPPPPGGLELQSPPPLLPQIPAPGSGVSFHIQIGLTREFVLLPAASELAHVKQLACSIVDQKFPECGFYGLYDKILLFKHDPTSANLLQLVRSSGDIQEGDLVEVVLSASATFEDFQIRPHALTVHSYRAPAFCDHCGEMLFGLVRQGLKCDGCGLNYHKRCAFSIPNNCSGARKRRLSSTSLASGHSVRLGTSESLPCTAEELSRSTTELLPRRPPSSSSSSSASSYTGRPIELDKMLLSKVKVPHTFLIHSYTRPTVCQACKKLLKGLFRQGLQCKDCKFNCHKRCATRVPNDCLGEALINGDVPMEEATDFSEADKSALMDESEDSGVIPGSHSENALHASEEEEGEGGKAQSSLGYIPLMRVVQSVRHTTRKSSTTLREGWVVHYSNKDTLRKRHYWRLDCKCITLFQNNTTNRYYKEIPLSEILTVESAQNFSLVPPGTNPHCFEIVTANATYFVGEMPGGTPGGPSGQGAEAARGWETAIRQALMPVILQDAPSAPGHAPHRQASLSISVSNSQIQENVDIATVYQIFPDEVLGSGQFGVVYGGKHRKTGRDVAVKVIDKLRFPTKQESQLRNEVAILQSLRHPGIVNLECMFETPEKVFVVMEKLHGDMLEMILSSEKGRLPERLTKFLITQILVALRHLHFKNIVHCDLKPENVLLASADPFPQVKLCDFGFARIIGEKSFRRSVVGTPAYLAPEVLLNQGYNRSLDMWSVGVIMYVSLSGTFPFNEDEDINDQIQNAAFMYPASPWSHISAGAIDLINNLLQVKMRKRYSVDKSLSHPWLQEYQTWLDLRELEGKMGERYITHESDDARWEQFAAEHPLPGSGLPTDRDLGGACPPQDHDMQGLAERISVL
Phosphatidylinositol 4-kinase beta (Homo sapiens), sequence (Q9UBF8 2-816 limits assumed): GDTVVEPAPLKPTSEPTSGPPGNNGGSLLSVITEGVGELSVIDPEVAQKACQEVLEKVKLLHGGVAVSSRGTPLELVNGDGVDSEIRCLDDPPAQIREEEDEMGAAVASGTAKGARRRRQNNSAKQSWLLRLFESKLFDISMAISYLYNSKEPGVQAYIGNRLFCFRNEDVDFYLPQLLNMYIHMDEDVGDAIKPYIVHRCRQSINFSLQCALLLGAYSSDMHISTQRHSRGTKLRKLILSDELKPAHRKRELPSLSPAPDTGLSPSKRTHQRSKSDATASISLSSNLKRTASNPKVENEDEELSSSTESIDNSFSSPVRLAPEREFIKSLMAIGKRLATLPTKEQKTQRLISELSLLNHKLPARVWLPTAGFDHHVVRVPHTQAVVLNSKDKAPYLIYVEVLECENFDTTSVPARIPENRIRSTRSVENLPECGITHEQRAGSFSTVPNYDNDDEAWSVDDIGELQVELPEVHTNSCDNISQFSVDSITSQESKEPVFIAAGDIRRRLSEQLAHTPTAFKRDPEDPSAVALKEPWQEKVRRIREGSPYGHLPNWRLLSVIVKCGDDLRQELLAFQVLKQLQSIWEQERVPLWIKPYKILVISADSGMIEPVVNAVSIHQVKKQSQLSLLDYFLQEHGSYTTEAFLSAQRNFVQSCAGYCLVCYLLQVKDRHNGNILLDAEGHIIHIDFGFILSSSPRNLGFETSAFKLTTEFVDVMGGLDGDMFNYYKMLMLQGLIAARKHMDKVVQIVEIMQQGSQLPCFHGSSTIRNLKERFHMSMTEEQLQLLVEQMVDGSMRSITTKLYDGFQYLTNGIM
Serine/threonine-protein kinase TAO3 (Homo sapiens), sequence (Q9H2K8 whole entry): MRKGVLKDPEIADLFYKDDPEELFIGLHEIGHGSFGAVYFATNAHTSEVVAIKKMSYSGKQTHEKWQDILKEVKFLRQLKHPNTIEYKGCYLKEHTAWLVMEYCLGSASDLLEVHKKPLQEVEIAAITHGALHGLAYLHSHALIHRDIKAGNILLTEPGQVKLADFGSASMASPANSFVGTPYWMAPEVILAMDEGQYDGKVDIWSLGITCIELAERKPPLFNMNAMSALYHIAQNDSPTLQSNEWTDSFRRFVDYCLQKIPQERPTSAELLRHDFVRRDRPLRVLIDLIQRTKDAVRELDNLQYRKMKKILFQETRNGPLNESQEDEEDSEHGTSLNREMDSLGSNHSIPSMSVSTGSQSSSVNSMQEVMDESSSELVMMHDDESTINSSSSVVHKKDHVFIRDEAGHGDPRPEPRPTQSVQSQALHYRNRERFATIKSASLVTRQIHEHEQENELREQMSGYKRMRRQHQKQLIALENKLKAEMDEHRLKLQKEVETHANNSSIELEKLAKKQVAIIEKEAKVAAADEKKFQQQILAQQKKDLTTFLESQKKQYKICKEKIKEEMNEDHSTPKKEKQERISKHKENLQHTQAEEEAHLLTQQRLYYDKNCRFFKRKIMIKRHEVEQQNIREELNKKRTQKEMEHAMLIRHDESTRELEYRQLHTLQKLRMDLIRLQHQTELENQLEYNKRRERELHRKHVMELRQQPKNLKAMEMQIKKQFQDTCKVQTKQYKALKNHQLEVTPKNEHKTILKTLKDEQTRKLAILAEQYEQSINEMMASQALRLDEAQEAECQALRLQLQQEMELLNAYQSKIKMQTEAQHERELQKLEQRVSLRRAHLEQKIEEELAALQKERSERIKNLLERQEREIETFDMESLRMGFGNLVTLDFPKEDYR
Serine/threonine-protein kinase 32B (Homo sapiens), sequence (Q9NY57 whole entry): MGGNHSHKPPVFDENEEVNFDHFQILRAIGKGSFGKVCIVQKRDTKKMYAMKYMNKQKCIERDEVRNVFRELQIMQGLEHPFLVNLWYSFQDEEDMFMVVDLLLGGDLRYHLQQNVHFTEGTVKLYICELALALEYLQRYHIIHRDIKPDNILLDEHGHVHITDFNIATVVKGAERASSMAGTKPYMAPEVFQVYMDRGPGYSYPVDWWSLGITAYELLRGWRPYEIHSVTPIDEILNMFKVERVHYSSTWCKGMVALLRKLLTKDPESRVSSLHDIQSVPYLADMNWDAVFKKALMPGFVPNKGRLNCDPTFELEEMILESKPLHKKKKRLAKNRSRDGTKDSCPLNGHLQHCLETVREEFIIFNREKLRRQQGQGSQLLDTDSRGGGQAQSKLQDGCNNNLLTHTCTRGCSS
Serine/threonine-protein kinase Sgk2 (Homo sapiens), sequence (Q9HBY8 whole entry): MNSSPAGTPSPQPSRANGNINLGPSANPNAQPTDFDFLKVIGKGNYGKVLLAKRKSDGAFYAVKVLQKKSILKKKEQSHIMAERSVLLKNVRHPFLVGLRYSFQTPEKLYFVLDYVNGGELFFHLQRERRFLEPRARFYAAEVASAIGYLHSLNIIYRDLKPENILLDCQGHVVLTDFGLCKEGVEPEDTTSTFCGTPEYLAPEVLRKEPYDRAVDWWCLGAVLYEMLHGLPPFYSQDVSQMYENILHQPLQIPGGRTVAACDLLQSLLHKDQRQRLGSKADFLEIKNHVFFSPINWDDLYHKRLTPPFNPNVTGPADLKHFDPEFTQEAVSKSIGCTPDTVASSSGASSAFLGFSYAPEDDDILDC
SRSF protein kinase 2 (Homo sapiens), sequence (P78362 whole entry, looked up): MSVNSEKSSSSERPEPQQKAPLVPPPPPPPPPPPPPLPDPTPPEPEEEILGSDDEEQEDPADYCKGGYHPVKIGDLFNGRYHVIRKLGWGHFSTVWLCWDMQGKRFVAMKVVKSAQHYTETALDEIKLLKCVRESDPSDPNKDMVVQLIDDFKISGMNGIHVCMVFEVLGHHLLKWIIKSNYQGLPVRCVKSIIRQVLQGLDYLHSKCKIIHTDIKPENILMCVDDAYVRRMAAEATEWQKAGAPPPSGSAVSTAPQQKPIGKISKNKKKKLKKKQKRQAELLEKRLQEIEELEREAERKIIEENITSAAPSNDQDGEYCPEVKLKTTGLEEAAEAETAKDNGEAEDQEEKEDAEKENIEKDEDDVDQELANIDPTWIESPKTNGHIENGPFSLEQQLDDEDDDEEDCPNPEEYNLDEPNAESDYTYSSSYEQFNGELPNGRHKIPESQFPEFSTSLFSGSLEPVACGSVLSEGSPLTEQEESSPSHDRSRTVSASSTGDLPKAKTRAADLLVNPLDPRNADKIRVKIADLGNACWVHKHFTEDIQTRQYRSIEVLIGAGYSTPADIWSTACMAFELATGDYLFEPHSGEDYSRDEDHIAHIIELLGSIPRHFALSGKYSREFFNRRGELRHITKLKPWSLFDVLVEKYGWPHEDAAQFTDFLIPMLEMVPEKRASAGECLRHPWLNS

C[C@H](NC(=O)c1cnc2n1[C@](C)(Cc1ccc(C#N)cc1)C(=O)N2c1cc(Cl)c(F)c(Cl)c1)C(=O)NC1(c2ccccn2)CC1 [BI 1950]
inactive: residual activity [1] 100% | inhibition [2] -4.33% | residual activity [3] 100% | residual activity [4] 100% | residual activity [5] 81% | residual activity [6] 100% | residual activity [7] 100% | residual activity [8] 100% | residual activity [9] 100% | residual activity [10] 100% | residual activity [12] 97% | residual activity [13] 100% | residual activity [14] 100% | residual activity [15] 94% | residual activity [16] 100% | residual activity [17] 100% | residual activity [18] 100% | inhibition [19] 0.16% | residual activity [20] 100% | residual activity [21] 100% | residual activity [22] 91% | residual activity [23] 98% | residual activity [24] 98% | residual activity [25] 100% | residual activity [26] 80% | residual activity [27] 100% | residual activity [28] 100% | residual activity [29] 99% | residual activity [30] 88% | residual activity [31] 100% | residual activity [32] 100% | residual activity [33] 100% | residual activity [34] 100% | inhibition [35] 3.2% | residual activity [36] 100% | residual activity [37] 100% | residual activity [38] 100% | residual activity [39] 63% | residual activity [40] 100% | residual activity [41] 100% | residual activity [42] 90% | residual activity [43] 100% | residual activity [44] 100% | residual activity [45] 100%
active: residual activity [11] 34%

C[C@@]1(Cc2ccc(C#N)cc2)C(=O)N(c2cc(Cl)cc(Cl)c2)c2ncc(C(=O)NC3(c4nc(C5CCC5)no4)CC3)n21 [BI 9446]
inactive: residual activity [1] 100% | inhibition [2] 5.35% | residual activity [3] 100% | residual activity [4] 100% | residual activity [5] 96% | residual activity [6] 100% | residual activity [7] 86% | residual activity [8] 100% | residual activity [9] 100% | residual activity [10] 100% | residual activity [11] 56% | residual activity [12] 100% | residual activity [13] 100% | residual activity [14] 100% | residual activity [15] 100% | residual activity [16] 100% | residual activity [17] 100% | residual activity [18] 100% | inhibition [19] 9.3% | residual activity [20] 93% | residual activity [21] 100% | residual activity [22] 99% | residual activity [23] 100% | residual activity [24] 100% | residual activity [25] 100% | residual activity [26] 100% | residual activity [27] 100% | residual activity [28] 100% | residual activity [29] 100% | residual activity [30] 91% | residual activity [31] 91% | residual activity [32] 100% | residual activity [33] 100% | residual activity [34] 100% | inhibition [35] 10.3% | residual activity [36] 91% | residual activity [37] 100% | residual activity [38] 100% | residual activity [39] 100% | residual activity [40] 100% | residual activity [41] 100% | residual activity [42] 89% | residual activity [43] 100% | residual activity [44] 100% | residual activity [45] 93%
